Common to all, as to test: KINOMEscan kinase binding assay (Eurofins/DiscoveRx), % Ctrl
In assay [1] the target is T1, kinases (Homo sapiens, UniProt P00519, E255K).
T1 construct: purchased Eurofins/DiscoveRx; host or cells: E. coli BL21-derived host (T7 phage display) for most kinases; HEK-293 for the rest
The conditions noted are these: 1 μM; ABL1(E255K)-phosphorylated. Summed up:
(§1)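 Competition binding, 1 h RT: phage-tagged or HEK-293-expressed DNA-tagged kinase + immobilized ligand + compound. Eluate kinase by qPCR. % Ctrl = (test − positive ctrl)/(negative ctrl − positive ctrl) × 100; lower means stronger binding.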

In assay [2] the target is T2, kinases (Homo sapiens, UniProt P00519).
T2 construct: purchased Eurofins/DiscoveRx; host or cells: E. coli BL21-derived host (T7 phage display) for most kinases; HEK-293 for the rest
As to conditions: 1 μM. In short, it runs like this: as §1

Assay [3] addresses T3, kinases (Homo sapiens, UniProt P00533, DEL752-759).
T3 construct: purchased Eurofins/DiscoveRx; host or cells: E. coli BL21-derived host (T7 phage display) for most kinases; HEK-293 for the rest
As to conditions: 1 μM; EGFR(S752-I759del). Summed up: as §1

Assay [4] has as its target T4, kinases (Homo sapiens, UniProt P10721, V559D).
T4 construct: purchased Eurofins/DiscoveRx; host or cells: E. coli BL21-derived host (T7 phage display) for most kinases; HEK-293 for the rest
The conditions noted are these: 1 μM; KIT(V559D). Summed up: as §1

The target of assay [5] is T5, kinases (Homo sapiens, UniProt P00519, T315I).
T5 construct: purchased Eurofins/DiscoveRx; host or cells: E. coli BL21-derived host (T7 phage display) for most kinases; HEK-293 for the rest
As to conditions: 1 μM. In short, it runs like this:
as §1

In assay [6] the target is T6, kinases (Homo sapiens, UniProt P07949, M918T).
T6 construct: purchased Eurofins/DiscoveRx; host or cells: E. coli BL21-derived host (T7 phage display) for most kinases; HEK-293 for the rest
The conditions noted are these: 1 μM; RET(M918T). Summed up:
as §1

Assay [7] concerns the target T7, kinases (Homo sapiens, UniProt P42684).
T7 construct: purchased Eurofins/DiscoveRx; host or cells: E. coli BL21-derived host (T7 phage display) for most kinases; HEK-293 for the rest
The conditions noted are these: 1 μM; ABL2. Summed up: as §1

The target in assay [8] is T8, kinases (Homo sapiens, UniProt P07949).
T8 construct: purchased Eurofins/DiscoveRx; host or cells: E. coli BL21-derived host (T7 phage display) for most kinases; HEK-293 for the rest
The conditions noted are these: 1 μM; RET. In short, it runs like this: as §1

For assay [9], the target named is T9, kinases (Homo sapiens, UniProt P36888).
T9 construct: purchased Eurofins/DiscoveRx; host or cells: E. coli BL21-derived host (T7 phage display) for most kinases; HEK-293 for the rest
T9 sequence (P36888 27-993): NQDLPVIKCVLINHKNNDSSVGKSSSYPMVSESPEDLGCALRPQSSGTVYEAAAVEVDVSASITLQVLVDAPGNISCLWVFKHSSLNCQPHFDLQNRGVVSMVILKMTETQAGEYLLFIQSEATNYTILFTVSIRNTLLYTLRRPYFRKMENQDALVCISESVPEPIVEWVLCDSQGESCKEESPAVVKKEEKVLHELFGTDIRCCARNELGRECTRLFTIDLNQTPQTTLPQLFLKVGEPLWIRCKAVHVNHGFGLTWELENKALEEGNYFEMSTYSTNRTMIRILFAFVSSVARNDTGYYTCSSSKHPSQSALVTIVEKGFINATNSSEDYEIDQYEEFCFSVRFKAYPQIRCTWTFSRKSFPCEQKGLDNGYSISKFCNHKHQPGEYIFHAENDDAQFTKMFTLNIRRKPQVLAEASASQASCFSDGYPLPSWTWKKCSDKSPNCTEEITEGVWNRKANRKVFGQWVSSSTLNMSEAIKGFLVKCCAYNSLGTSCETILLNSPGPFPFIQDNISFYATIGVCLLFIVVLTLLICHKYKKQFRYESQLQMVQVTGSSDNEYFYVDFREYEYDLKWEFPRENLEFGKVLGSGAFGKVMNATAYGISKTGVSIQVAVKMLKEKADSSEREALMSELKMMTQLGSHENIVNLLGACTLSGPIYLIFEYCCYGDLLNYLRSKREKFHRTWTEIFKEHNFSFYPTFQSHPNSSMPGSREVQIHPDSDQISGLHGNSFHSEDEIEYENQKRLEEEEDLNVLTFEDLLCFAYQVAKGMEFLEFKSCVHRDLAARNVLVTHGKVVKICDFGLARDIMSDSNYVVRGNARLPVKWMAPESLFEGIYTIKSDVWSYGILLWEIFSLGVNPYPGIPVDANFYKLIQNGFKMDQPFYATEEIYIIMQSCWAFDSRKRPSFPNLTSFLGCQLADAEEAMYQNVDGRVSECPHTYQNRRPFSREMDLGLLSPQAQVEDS
As to conditions: 1 μM. In short, it runs like this: as §1

Assay [10] addresses T10, kinases (Homo sapiens, UniProt P00519, Q252H).
T10 construct: purchased Eurofins/DiscoveRx; host or cells: E. coli BL21-derived host (T7 phage display) for most kinases; HEK-293 for the rest
The conditions noted are these: 1 μM. Summed up: as §1

Assay [11] deals with T11, kinases (Homo sapiens, UniProt P10721, D816H).
T11 construct: purchased Eurofins/DiscoveRx; host or cells: E. coli BL21-derived host (T7 phage display) for most kinases; HEK-293 for the rest
As to conditions: 1 μM; KIT(D816H). Summed up:
as §1

Assay [12] has as its target T12, kinases (Homo sapiens, UniProt P00533, L861Q).
T12 construct: purchased Eurofins/DiscoveRx; host or cells: E. coli BL21-derived host (T7 phage display) for most kinases; HEK-293 for the rest
As to conditions: 1 μM; EGFR(L861Q). Summed up: as §1

The target in assay [13] is T13, kinases (Homo sapiens, UniProt P16234).
T13 construct: purchased Eurofins/DiscoveRx; host or cells: E. coli BL21-derived host (T7 phage display) for most kinases; HEK-293 for the rest
As to conditions: 1 μM; PDGFRA. In short, it runs like this: as §1

SMILES strings stand for the structures.

T13 sequence (P16234 24-1089): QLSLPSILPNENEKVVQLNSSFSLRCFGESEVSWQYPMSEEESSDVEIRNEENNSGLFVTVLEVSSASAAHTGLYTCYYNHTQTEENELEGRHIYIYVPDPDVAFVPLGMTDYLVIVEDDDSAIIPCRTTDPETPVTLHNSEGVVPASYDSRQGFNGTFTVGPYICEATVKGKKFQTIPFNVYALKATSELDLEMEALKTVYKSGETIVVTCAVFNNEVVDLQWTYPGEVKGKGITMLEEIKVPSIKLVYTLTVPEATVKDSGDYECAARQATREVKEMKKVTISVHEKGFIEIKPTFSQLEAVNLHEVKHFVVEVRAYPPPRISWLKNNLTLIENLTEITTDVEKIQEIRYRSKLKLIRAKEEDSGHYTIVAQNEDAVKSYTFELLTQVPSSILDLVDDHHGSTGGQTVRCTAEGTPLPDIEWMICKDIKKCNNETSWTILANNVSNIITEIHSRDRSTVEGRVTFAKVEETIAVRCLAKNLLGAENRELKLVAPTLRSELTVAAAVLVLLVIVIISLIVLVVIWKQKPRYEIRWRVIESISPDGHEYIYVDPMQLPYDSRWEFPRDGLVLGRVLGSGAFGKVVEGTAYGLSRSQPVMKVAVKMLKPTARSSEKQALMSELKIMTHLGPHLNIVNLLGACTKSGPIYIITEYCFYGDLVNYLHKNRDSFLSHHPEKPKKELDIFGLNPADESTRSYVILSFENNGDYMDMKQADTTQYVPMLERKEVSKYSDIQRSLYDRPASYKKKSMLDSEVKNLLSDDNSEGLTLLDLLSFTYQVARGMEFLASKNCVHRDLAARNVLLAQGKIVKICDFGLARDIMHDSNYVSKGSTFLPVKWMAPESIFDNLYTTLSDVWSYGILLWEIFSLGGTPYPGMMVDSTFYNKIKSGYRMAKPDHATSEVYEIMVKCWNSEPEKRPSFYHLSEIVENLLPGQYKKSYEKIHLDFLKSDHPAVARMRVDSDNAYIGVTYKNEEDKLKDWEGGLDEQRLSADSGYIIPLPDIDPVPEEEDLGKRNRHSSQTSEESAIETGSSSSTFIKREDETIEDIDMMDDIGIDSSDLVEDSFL
T7 sequence (P42684 whole entry): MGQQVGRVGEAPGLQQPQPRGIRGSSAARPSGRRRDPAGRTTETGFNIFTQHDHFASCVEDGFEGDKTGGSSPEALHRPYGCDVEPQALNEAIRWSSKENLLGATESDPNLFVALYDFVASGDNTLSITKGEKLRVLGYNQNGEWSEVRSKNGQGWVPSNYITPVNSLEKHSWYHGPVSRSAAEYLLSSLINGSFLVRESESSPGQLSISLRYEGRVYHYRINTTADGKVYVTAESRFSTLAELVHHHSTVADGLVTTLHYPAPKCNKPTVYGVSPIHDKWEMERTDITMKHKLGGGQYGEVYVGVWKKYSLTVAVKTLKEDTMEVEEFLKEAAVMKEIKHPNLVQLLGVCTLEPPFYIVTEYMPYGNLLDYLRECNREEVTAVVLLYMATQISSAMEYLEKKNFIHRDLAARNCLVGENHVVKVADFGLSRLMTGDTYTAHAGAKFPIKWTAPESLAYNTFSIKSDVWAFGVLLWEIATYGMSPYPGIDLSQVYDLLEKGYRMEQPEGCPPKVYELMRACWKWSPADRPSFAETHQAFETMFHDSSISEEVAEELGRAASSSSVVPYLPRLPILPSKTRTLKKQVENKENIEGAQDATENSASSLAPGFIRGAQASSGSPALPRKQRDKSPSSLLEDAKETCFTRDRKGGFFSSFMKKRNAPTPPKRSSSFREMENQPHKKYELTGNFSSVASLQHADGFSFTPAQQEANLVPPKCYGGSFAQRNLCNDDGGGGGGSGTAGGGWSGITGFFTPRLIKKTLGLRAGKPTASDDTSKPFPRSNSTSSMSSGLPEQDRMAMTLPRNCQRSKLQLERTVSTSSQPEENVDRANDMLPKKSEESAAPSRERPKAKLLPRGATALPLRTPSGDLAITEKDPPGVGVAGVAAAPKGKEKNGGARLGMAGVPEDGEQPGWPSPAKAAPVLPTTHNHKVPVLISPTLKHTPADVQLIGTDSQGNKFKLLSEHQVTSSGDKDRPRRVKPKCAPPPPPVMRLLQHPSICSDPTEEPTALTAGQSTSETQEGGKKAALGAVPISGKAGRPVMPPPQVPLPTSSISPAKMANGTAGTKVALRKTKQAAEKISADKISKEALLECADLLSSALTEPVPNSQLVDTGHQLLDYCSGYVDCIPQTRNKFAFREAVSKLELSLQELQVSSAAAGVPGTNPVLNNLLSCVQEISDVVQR
T4 sequence (P10721 26-976 V559D): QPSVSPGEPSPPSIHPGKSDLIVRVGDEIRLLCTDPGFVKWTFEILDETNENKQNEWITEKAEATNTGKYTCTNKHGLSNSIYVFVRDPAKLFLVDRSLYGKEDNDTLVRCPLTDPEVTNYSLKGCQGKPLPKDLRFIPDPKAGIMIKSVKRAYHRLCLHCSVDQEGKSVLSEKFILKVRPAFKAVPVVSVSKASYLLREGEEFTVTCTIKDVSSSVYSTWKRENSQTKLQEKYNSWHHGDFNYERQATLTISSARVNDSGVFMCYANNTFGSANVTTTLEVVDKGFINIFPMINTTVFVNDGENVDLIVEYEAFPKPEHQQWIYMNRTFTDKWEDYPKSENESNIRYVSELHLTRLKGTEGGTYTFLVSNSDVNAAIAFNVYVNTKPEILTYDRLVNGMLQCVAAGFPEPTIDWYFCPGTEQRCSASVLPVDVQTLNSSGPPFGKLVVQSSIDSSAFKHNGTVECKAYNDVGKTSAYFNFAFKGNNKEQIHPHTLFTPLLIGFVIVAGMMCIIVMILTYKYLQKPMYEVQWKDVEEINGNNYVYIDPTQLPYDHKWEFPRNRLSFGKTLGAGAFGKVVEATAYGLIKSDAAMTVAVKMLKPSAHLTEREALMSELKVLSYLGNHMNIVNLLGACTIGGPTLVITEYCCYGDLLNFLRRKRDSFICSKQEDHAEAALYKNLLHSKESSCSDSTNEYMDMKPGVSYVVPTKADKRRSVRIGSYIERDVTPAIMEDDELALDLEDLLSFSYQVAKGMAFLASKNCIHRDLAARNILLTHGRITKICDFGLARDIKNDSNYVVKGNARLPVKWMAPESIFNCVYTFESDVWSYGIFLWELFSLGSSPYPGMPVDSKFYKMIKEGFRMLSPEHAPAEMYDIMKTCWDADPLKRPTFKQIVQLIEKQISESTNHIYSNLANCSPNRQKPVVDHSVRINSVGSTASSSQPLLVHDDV
T11 sequence (P10721 26-976 D816H): as the sequence (P10721 26-976 V559D) above, with D534V, D791H counted along it
T8 sequence (P07949 29-1114): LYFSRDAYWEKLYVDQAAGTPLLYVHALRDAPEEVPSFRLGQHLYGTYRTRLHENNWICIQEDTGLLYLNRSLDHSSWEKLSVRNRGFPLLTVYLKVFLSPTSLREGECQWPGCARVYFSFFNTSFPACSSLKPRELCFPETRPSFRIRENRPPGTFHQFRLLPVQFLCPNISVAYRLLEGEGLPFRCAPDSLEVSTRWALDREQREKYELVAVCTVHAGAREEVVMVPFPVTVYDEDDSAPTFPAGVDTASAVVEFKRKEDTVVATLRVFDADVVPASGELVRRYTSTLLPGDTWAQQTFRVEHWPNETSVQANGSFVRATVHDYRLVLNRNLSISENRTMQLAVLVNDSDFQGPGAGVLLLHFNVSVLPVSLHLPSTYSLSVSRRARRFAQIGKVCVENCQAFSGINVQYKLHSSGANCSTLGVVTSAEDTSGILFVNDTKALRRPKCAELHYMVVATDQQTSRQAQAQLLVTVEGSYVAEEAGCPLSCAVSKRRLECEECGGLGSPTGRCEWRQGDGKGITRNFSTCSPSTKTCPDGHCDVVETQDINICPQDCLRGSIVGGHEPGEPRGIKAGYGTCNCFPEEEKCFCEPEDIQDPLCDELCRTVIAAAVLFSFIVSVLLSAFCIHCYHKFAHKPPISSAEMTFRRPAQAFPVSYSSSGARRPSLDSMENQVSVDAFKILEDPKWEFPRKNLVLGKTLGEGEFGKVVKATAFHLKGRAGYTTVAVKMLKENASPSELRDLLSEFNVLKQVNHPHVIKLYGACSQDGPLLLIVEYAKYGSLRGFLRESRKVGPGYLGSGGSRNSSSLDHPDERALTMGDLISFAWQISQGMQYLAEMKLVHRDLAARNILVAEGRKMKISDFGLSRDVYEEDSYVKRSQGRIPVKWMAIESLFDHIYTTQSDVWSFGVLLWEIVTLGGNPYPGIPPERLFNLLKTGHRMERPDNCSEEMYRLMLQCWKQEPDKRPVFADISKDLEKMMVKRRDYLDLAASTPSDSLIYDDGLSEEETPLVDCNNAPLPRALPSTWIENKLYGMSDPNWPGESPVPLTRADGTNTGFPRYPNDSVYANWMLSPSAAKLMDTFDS
T6 sequence (P07949 29-1114 M918T): as the sequence (P07949 29-1114) above, with M890T counted along it

For `Cc1cc2c([nH]1)/C=C1\C(=O)Nc3cc(Cl)c(cc31)OCCO[C@@H](C(=O)NC1CCNCC1)CN(C)C2=O` [Ex. 134, [7R,16a(17)Z]-19-chloro-2,5-dimethyl-4,16-dioxo-N-(piperidin-4-yl)-4,5,6,7,9,10,15,16-octahydro-1H-12,14-(ethaneidylidene)dipyrrolo[3,2-i:3′,4′-l][1,4,7]dioxazacyclopentadecine-7-carboxamide], the “% Ctrl, ABL1(E255K)-phosphorylated” value at kinases [1] stood at 50 % Ctrl. In addition, at kinases [2], the “% Ctrl, ABL1-nonphosphorylated” value was found to be 46 % Ctrl and the “% Ctrl, ABL1-phosphorylated” value turned out to be 38 % Ctrl. The “% Ctrl, EGFR(S752-I759del)” value at kinases [3] came to 88 % Ctrl. Also, the “% Ctrl, KIT(V559D)” value at kinases [4] turned out to be 43 % Ctrl. For the same compound, on kinases [5], the “% Ctrl, ABL1(T315I)-nonphosphorylated” value turned out to be 84 % Ctrl and the “% Ctrl, ABL1(T315I)-phosphorylated” value is 46 % Ctrl. In addition, on kinases [6], the “% Ctrl, RET(M918T)” value came out at 32 % Ctrl. Further, at kinases [7], the “% Ctrl, ABL2” value amounted to 77 % Ctrl. At kinases [8], the “% Ctrl, RET” value turned out to be 27 % Ctrl. Besides, at kinases [9], the “% Ctrl, FLT3” value is 48 % Ctrl and the “% Ctrl, FLT3-autoinhibited” value was 95 % Ctrl. Besides, on kinases [10], the “% Ctrl, ABL1(Q252H)-nonphosphorylated” value came to 32 % Ctrl and the “% Ctrl, ABL1(Q252H)-phosphorylated” value is 18 % Ctrl. Further, the “% Ctrl, KIT(D816H)” value at kinases [11] is listed as 56 % Ctrl. The “% Ctrl, EGFR(L861Q)” value at kinases [12] is 95 % Ctrl. Moreover, the “% Ctrl, PDGFRA” value at kinases [13] was 72 % Ctrl.

Regarding `CNC(=O)[C@H]1CN(C)C(=O)c2cc(C)[nH]c2/C=C2\C(=O)Nc3cc(Cl)c(cc32)OCCO1` [Ex. 135, [7R,16a(17)Z]-19-chloro-N,2,5-trimethyl-4,16-dioxo-4,5,6,7,9,10,15,16-octahydro-1H-12,14-(ethanediylidene)dipyrrolo[3,2-i:3′,4′-l][1,4,7]dioxazacyclopentadecine-7-carboxamide], at kinases [1], the “% Ctrl, ABL1(E255K)-phosphorylated” value was determined as 56 % Ctrl. Also, on kinases [2], the “% Ctrl, ABL1-nonphosphorylated” value is reported as 33 % Ctrl and the “% Ctrl, ABL1-phosphorylated” value is 58 % Ctrl. Besides, the “% Ctrl, EGFR(S752-I759del)” value at kinases [3] was found to be 92 % Ctrl. Besides, the “% Ctrl, KIT(V559D)” value at kinases [4] is 45 % Ctrl. For the same compound, on kinases [5], the “% Ctrl, ABL1(T315I)-nonphosphorylated” value came to 94 % Ctrl and the “% Ctrl, ABL1(T315I)-phosphorylated” value came to 72 % Ctrl. Also, the “% Ctrl, RET(M918T)” value on kinases [6] stood at 36 % Ctrl. The “% Ctrl, ABL2” value on kinases [7] is reported as 85 % Ctrl. Further, on kinases [8], the “% Ctrl, RET” value turned out to be 33 % Ctrl. For the same compound, on kinases [9], the “% Ctrl, FLT3” value came to 57 % Ctrl and the “% Ctrl, FLT3-autoinhibited” value was determined as 89 % Ctrl. On kinases [10], the “% Ctrl, ABL1(Q252H)-nonphosphorylated” value turned out to be 43 % Ctrl and the “% Ctrl, ABL1(Q252H)-phosphorylated” value is listed as 47 % Ctrl. For the same compound, at kinases [11], the “% Ctrl, KIT(D816H)” value is on record as 80 % Ctrl. Further, the “% Ctrl, EGFR(L861Q)” value on kinases [12] is 86 % Ctrl. For the same compound, at kinases [13], the “% Ctrl, PDGFRA” value is 79 % Ctrl.

Turning to `Cc1cc2c([nH]1)/C=C1\C(=O)Nc3cc(Cl)c(cc31)OCCO[C@@H](C(=O)N[C@@H]1CCNC1)CN(C)C2=O` [Ex. 136, [7R,16a(17)Z]-19-chloro-2,5-dimethyl-4,16-dioxo-N-[(3R)-pyrrolidin-3-yl]-4,5,6,7,9,10,15,16-octahydro-1H-12,14-(ethanediylidene)dipyrrolo[3,2-i:3′,4′-l][1,4,7]dioxazacyclopentadecine-7-carboxamide], the “% Ctrl, ABL1(E255K)-phosphorylated” value at kinases [1] worked out at 36 % Ctrl. In addition, on kinases [2], the “% Ctrl, ABL1-nonphosphorylated” value amounted to 36 % Ctrl and the “% Ctrl, ABL1-phosphorylated” value is 25 % Ctrl. The “% Ctrl, EGFR(S752-I759del)” value at kinases [3] worked out at 95 % Ctrl. Also, on kinases [4], the “% Ctrl, KIT(V559D)” value is given as 36 % Ctrl. Besides, on kinases [5], the “% Ctrl, ABL1(T315I)-nonphosphorylated” value was found to be 77 % Ctrl and the “% Ctrl, ABL1(T315I)-phosphorylated” value was found to be 37 % Ctrl. Further, the “% Ctrl, RET(M918T)” value on kinases [6] was 25 % Ctrl. Moreover, the “% Ctrl, ABL2” value at kinases [7] amounted to 77 % Ctrl. In addition, the “% Ctrl, RET” value on kinases [8] turned out to be 23 % Ctrl. Further, on kinases [9], the “% Ctrl, FLT3” value worked out at 36 % Ctrl and the “% Ctrl, FLT3-autoinhibited” value is on record as 97 % Ctrl. On kinases [10], the “% Ctrl, ABL1(Q252H)-nonphosphorylated” value is reported as 24 % Ctrl and the “% Ctrl, ABL1(Q252H)-phosphorylated” value stood at 14 % Ctrl. The “% Ctrl, KIT(D816H)” value on kinases [11] amounted to 48 % Ctrl. Further, at kinases [12], the “% Ctrl, EGFR(L861Q)” value was found to be 95 % Ctrl. Also, the “% Ctrl, PDGFRA” value at kinases [13] stood at 56 % Ctrl.

Regarding `Cc1cc2c([nH]1)/C=C1\C(=O)Nc3cc(Cl)c(cc31)OCCO[C@@H](C(=O)N(C)C)CN(C)C2=O` [Ex. 137, [7R,16a(17)Z]-19-chloro-N,N,2,5-tetramethyl-4,16-dioxo-4,5,6,7,9,10,15,16-octahydro-1H-12,14-(ethanediylidene)dipyrrolo[3,2-i:3′,4′-l][1,4,7]dioxazacyclopentadecine-7-carboxamide], the “% Ctrl, ABL1(E255K)-phosphorylated” value at kinases [1] stood at 64 % Ctrl. At kinases [2], the “% Ctrl, ABL1-nonphosphorylated” value is given as 43 % Ctrl and the “% Ctrl, ABL1-phosphorylated” value was 61 % Ctrl. Moreover, the “% Ctrl, EGFR(S752-I759del)” value on kinases [3] was 98 % Ctrl. The “% Ctrl, KIT(V559D)” value on kinases [4] is recorded as 75 % Ctrl. Moreover, on kinases [5], the “% Ctrl, ABL1(T315I)-nonphosphorylated” value is recorded as 81 % Ctrl and the “% Ctrl, ABL1(T315I)-phosphorylated” value was 69 % Ctrl. Further, the “% Ctrl, RET(M918T)” value on kinases [6] was 6.4 % Ctrl. Further, the “% Ctrl, ABL2” value on kinases [7] was found to be 99 % Ctrl. The “% Ctrl, RET” value on kinases [8] is listed as 8 % Ctrl. Besides, on kinases [9], the “% Ctrl, FLT3” value was determined as 55 % Ctrl and the “% Ctrl, FLT3-autoinhibited” value was 77 % Ctrl. In addition, on kinases [10], the “% Ctrl, ABL1(Q252H)-nonphosphorylated” value is reported as 48 % Ctrl and the “% Ctrl, ABL1(Q252H)-phosphorylated” value turned out to be 51 % Ctrl. On kinases [11], the “% Ctrl, KIT(D816H)” value was determined as 74 % Ctrl. The “% Ctrl, EGFR(L861Q)” value on kinases [12] is given as 100 % Ctrl. In addition, the “% Ctrl, PDGFRA” value on kinases [13] is 72 % Ctrl.

Values taken from patent US20230257396A1, “MACROCYCLES AND THEIR USE” (BLOSSOMHILL THERAPEUTICS, INC., priority 2020, published 2023).
